Among the data in patent US11827628B2, “Compositions and methods for inhibition of the JAK pathway” (Rigel Pharmaceuticals, Inc., priority 2005, dated 2023) are IC50 values, retold here.

Each structure is given as a SMILES string.

This experiment concerns up-regulation of ICAM-1 (CD54) by IFNγ in U937 human monocytic cells. Briefly: U937 IFNγ ICAM1 FACS Assay. The format is cell-based. As to conditions: U937 cells stimulated with IFNγ; ICAM-1 expression by FACS; read-out: IC50, Example 44. An outline of the steps: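 Readout was the geometric-mean APC anti-ICAM-1 signal by FACS on live U937 monocytic cells, with % live cells also recorded. Cells were exposed to compounds (8 points, 3-fold dilutions, duplicates) for 30 min at 37 °C before 18–24 h of IFNγ stimulation. EC50 values were computed from the dose curve.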
A general note: Flow cytometry measures light scatter and fluorescence of single cells or particles in a stream.

As to `CC(Oc1ccc(Nc2nc(Nc3cccc(S(N)(=O)=O)c3)ncc2F)cc1)C(N)=O` (racemic) [Compound I-117, Racemic N4-[4-(1-Aminocarbonyl)ethoxy]phenyl-N2-(3-aminosulfonyl)phenyl-5-fluoro-2,4-pyrimidinediamine], the IC50 amounted to 14600 nM. In the case of `Cc1cc(Nc2nc(Nc3ccc(S(N)(=O)=O)cc3)ncc2F)ccc1OC(C)C(N)=O` (racemic) [Compound I-119, Racemic N4-[4-(1-Aminocarbonyl)ethoxy-3-methyl]phenyl-N2-(4-aminosulfonyl)phenyl-5-fluoro-2,4-pyrimidinediamine] it was 11900 nM; in that of `Cc1cc(Nc2nc(Nc3cccc(S(N)(=O)=O)c3)ncc2F)ccc1OC(C)C(N)=O` (racemic) [Compound I-120, Racemic N4-[4-(1-Aminocarbonyl)ethoxy-3-methyl]phenyl-N2-(3-aminosulfonyl)phenyl-5-fluoro-2,4-pyrimidinediamine], 4460 nM; in that of `Cc1cc(Nc2nc(Nc3ccc(C)c(S(N)(=O)=O)c3)ncc2F)ccc1OC(C)C(N)=O` (racemic) [Compound I-121, Racemic N4-[4-(1-Aminocarbonyl)ethoxy-3-methyl]phenyl-N2-(3-aminosulfonyl-4-methyl)phenyl-5-fluoro-2,4-pyrimidinediamine], 2990 nM. In the case of `Cc1cc(Nc2nc(Nc3ccc(S(N)(=O)=O)cc3)ncc2F)cc(C)c1OC(C)C(N)=O` (racemic) [Compound I-122, Racemic N4-[4-(1-Aminocarbonyl)ethoxy-3,5-dimethyl]phenyl-N2-(4-aminosulfonyl)phenyl-5-fluoro-2,4-pyrimidinediamine] it was 15700 nM; in that of `Cc1cc(Nc2nc(Nc3cccc(S(N)(=O)=O)c3)ncc2F)cc(C)c1OC(C)C(N)=O` (racemic) [Compound I-123, Racemic N4-[4-(1-Aminocarbonyl)ethoxy-3,5-dimethyl]phenyl-N2-(3-aminosulfonyl)phenyl-5-fluoro-2,4-pyrimidinediamine], 2220 nM; in that of `Cc1ccc(Nc2ncc(F)c(Nc3cc(C)c(OC(C)C(N)=O)c(C)c3)n2)cc1S(N)(=O)=O` (racemic) [Compound I-124, Racemic N4-[4-(1-Aminocarbonyl)ethoxy-3,5-dimethyl]phenyl-N2-(3-aminosulfonyl-4-methyl)phenyl-5-fluoro-2,4-pyrimidinediamine], 1330 nM. Next, `Cc1ccc(Nc2ncc(F)c(Nc3ccc4c(c3)CC(C(=O)N(C)C)O4)n2)cc1S(N)(=O)=O` (racemic) [VII-26, Racemic N2-(3-Aminosulfonyl-4-methylphenyl)-N4-[2-(N,N-dimethylaminocarbonyl)-2,3-dihydrobenzofuran-5-yl]-5-fluoro-2,4-pyrimidinediamine]: 9260 nM. With `CN(C)C(=O)C1Cc2cc(Nc3nc(Nc4ccc(Cl)c(S(N)(=O)=O)c4)ncc3F)ccc2O1` (racemic) [VII-27, Racemic N2-(3-Aminosulfonyl-4-chlorophenyl)-N4-[2-(N,N-dimethylaminocarbonyl)-2,3-dihydrobenzofuran-5-yl]-5-fluoro-2,4-pyrimidinediamine], the IC50 came to 6250 nM. Consider `CC(C)c1ccc(Nc2ncc(F)c(Nc3ccc(OCC#N)cc3)n2)cc1S(N)(=O)=O` [Compound I-8, N2-(3-Aminosulfonyl-4-iso-propylphenyl)-N4-(4-cyanomethyleneoxyphenyl)-5-fluoro-2,4-pyrimidinediamine], for which the IC50 stood at 410 nM. In the case of `CN1CCN(c2ccc(Nc3ncc(F)c(Nc4ccc(OCC#N)cc4)n3)cc2S(N)(=O)=O)CC1` [Compound I-9, N2-[3-Aminosulfonyl-4-(4-methylpiperazin-1-yl)phenyl]-5-fluoro-N4-(4-cyanomethyleneoxyphenyl)-2,4-pyrimidinediamine] it was 787 nM. In the case of `CN1CCN(c2ccc(Nc3ncc(F)c(Nc4ccc(OCC#N)c(F)c4)n3)cc2S(N)(=O)=O)CC1` [Compound I-10, N2-[3-Aminosulfonyl-4-(4-methylpiperazine-1-yl)phenyl]-5-fluoro-N4-(4-cyanomethyleneoxy-3-fluorophenyl)-2,4-pyrimidinediamine] it was 261 nM. In the case of `Cc1ccc(Nc2ncc(F)c(Nc3ccc(OCC#N)c(F)c3)n2)cc1S(N)(=O)=O` [Compound I-11, N2-(3-Aminosulfonyl-4-methylphenyl)-5-fluoro-N4-(4-cyanomethyleneoxy-3-fluorophenyl)-2,4-pyrimidinediamine] it was 329 nM. Turning to `N#CCOc1ccc(Nc2nc(Nc3cccc(S(N)(=O)=O)c3)ncc2F)cc1F` [Compound I-12, N2-(3-Aminosulfonylphenyl)-5-fluoro-N4-(4-cyanomethyleneoxy-3-fluorophenyl)-2,4-pyrimidinediamine], the IC50 was 222 nM. In the case of `N#CCOc1ccc(Nc2nc(Nc3cccc(S(N)(=O)=O)c3)ncc2Br)cc1` [Compound I-13, N2-(3-Aminosulfonylphenyl)-5-bromo-N4-(4-cyanomethyleneoxyphenyl)-2,4-pyrimidinediamine] it was 43.5 nM; in that of `Cc1ccc(Nc2ncc(Br)c(Nc3ccc(OCC#N)cc3)n2)cc1S(N)(=O)=O` [Compound I-14, N2-(3-Aminosulfonyl-4-methylphenyl)-5-bromo-N4-(4-cyanomethyleneoxyphenyl)-2,4-pyrimidinediamine], 41.8 nM.

Take `C[Si](C)(C)C#Cc1cnc(Nc2cccc(S(N)(=O)=O)c2)nc1Nc1ccc(OCC#N)cc1` [Compound I-15, N2-(3-Aminosulfonylphenyl)-N4-(4-cyanomethyleneoxyphenyl)-5-trimethylsilylacetylene-2,4-pyrimidinediamine]: the IC50 amounted to 4970 nM. In the case of `Cc1ccc(Nc2ncc(F)c(Nc3cc(C)c(OCC(N)=O)c(C)c3)n2)cc1S(N)(=O)=O` [Compound I-96, N4-(4-Aminocarbonylmethoxy-3,5-dimethyl)phenyl-N2-(3-aminosulfonyl-4-methyl)phenyl-5-fluoro-2,4-pyrimidinediamine] it was 3300 nM; in that of `Cc1cc(Nc2nc(Nc3ccc(S(N)(=O)=O)cc3)ncc2F)ccc1OCC(N)=O` [Compound I-113, N4-(4-Aminocarbonylmethoxy-3-methyl)phenyl-N2-(4-aminosulfonyl)phenyl-5-fluoro-2,4-pyrimidinediamine], 13500 nM; in that of `Cc1ccc(Nc2ncc(F)c(Nc3ccc(OC(C)C(N)=O)cc3)n2)cc1S(N)(=O)=O` (stereo not shown) [Compound I-118, N4-[4-(1-Aminocarbonyl)ethoxy]phenyl-N2-(3-aminosulfonyl-4-methyl)phenyl-5-fluoro-2,4-pyrimidinediamine], 2430 nM. Next, `CC(C)(Oc1ccc(Nc2nc(Nc3cccc(S(N)(=O)=O)c3)ncc2F)cc1)C(N)=O` [Compound I-126, N4-[4-(1-Aminocarbonyl-1-methyl)ethoxy]phenyl-N2-(3-aminosulfonyl)phenyl-5-fluoro-2,4-pyrimidinediamine]: 7200 nM; `Cc1ccc(Nc2ncc(F)c(Nc3ccc(OC(C)(C)C(N)=O)cc3)n2)cc1S(N)(=O)=O` [Compound I-127, N4-[4-(1-Aminocarbonyl-1-methyl)ethoxy]phenyl-N2-(3-aminosulfonyl-4-methyl)phenyl-5-fluoro-2,4-pyrimidinediamine]: 2510 nM. Next, `Cc1ccc(Nc2ncc(F)c(Nc3ccc(OCc4ccccn4)cc3)n2)cc1S(N)(=O)=O` [Compound I-160, N2-(3-Aminosulfonyl-4-methylphenyl)-5-fluoro-N4-[4-(2-pyridinyl)methyleneoxyphenyl]-2,4-pyrimidinediamine]: 923 nM; `NS(=O)(=O)c1ccc(Nc2ncc(F)c(Nc3ccc(OCc4ccccn4)cc3)n2)cc1` [Compound I-163, N2-(4-Aminosulfonylphenyl)-5-fluoro-N4-[4-(2-pyridinyl)methyleneoxyphenyl]-2,4-pyrimidinediamine]: 1410 nM. `CCN(CC)CCNS(=O)(=O)c1ccc(Nc2ncc(F)c(Nc3ccc(OCc4ccccn4)cc3)n2)cc1` [Compound I-165, N2-[4-(2-N,N-Diethylaminoethyl)aminosulfonylphenyl)-5-fluoro-N4-[4-(2-pyridinyl)methyleneoxyphenyl]-2,4-pyrimidinediamine]: the IC50 was determined as 1640 nM.

For the compound `CNS(=O)(=O)c1cc(Nc2ncc(F)c(Nc3ccc(-c4ccccn4)c(OCF)c3)n2)ccc1C` [Compound I-173, 5-Fluoro-N2-[3-N-(methyl)aminosulfonyl-4-methylphenyl]-N4-[4-(2-pyridinyl)-3-fluoromethyleneoxyphenyl]-2,4-pyrimidinediamine], the IC50 was 15500 nM.

Turning to `Cc1cnc(Nc2cccc(S(N)(=O)=O)c2)nc1Nc1ccc(OCc2ccccn2)cc1` [Compound I-179, N2-(3-Aminosulfonylphenyl)-5-methyl-N4-[4-(2-pyridinyl)methyleneoxyphenyl]-2,4-pyrimidinediamine], the IC50 is 117 nM. In the case of `CNS(=O)(=O)c1cc(Nc2ncc(C)c(Nc3ccc(OCc4ccccn4)cc3)n2)ccc1C` [Compound I-180, 5-Methyl-N2-[3-(N-methylaminosulfony)-4-methylphenyl]-N4-[4-(2-pyridinyl)methyleneoxyphenyl]-2,4-pyrimidinediamine] it was 456 nM; in that of `Cc1ccc(Nc2ncc(F)c(Nc3cccc(OCc4cccnc4)c3)n2)cc1S(N)(=O)=O` [Compound I-183, N2-(3-Aminosulfonyl-4-methylphenyl)-5-fluoro-N4-[3-(3-pyridinyl)methyleneoxyphenyl]-2,4-pyrimidinediamine], 2280 nM.

As for `CNS(=O)(=O)c1cc(Nc2ncc(F)c(Nc3cccc(OCc4cccnc4)c3)n2)ccc1C` [Compound I-184, 5-Fluoro-N2-[3-(N-methylaminosulfony)-4-methylphenyl]-5-fluoro-N4-[3-(3-pyridinyl)methyleneoxyphenyl]-2,4-pyrimidinediamine], the IC50 is 6620 nM.

For the compound `CCN(CC)CCNS(=O)(=O)c1ccc(Nc2ncc(F)c(Nc3cccc(OCc4cccnc4)c3)n2)cc1` [Compound I-186, N2-[4-(2-N,N-Diethylaminoethyl)aminosulfonylphenyl)-5-fluoro-N4-[3-(3-pyridinyl)methyleneoxyphenyl]-2,4-pyrimidinediamine], the IC50 came out at 3530 nM.

As a reminder, the IC50 is the concentration that inhibits the measured activity by half.
